The target of this assay is T1, hFXR (Homo sapiens, UniProt Q96RI1).
T1 construct: expressed in transfected cells; host or cells: CV-1 cells
T1 sequence (Q96RI1 1-486): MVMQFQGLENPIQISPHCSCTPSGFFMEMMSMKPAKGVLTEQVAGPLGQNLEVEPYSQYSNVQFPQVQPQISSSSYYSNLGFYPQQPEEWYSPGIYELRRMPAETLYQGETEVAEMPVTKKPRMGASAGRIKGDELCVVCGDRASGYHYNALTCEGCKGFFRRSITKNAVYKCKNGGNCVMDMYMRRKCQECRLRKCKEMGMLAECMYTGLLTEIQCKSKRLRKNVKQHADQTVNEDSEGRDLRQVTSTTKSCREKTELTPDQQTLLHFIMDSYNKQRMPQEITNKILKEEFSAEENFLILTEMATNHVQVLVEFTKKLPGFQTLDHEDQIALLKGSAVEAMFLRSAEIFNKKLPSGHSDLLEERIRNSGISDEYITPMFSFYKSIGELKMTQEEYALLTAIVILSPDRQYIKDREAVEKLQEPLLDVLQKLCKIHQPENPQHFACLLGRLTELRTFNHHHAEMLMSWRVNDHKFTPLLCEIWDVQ
T1 sequence (P19793 1-462 partner): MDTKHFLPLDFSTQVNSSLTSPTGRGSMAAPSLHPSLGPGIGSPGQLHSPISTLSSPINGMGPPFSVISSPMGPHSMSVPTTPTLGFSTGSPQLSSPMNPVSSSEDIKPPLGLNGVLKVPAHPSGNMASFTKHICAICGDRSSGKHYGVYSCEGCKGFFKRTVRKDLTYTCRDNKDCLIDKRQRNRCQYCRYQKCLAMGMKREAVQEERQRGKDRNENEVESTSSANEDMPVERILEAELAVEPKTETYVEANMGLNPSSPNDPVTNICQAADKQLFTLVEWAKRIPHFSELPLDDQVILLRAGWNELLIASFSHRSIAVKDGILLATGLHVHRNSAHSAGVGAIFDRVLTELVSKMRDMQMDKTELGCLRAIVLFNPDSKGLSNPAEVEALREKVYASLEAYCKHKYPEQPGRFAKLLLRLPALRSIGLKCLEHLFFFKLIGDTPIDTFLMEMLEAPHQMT
Kind of assay: In Vitro FXR Assay (TK): TK-ECRE-luc reporter in transfected CV-1 cells. In kind it is cell-based. The settings on record: 18 hrs incubation, luminescence. Summed up:
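CV-1, DMEM/10% charcoal-stripped FBS, 37 °C 5% CO2. Transfection O/N: hFXR + hRXR + TK-ECRE-luc + pCMX-YFP. Cpds (DMSO serial dil.) 18 h; lyse, read luminescence.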
Regarding `COc1c(C)cc(C23CCC(CN(c4cc(-c5cnn(C(C)C)c5)ccn4)C(=O)[C@H]4CC[C@H](OC(=O)N5CC(O)C5)CC4)(CC2)CC3)cc1C` [Compound 26.07, 4-((4-(1-Isopropyl-1H-pyrazol-4-yl)pyridin-2-yl)((4-(4-methoxy-3,5-dimethylphenyl)bicyclo[2.2.2]octan-1-yl)methyl)carbamoyl)cyclohexyl trans-3-hydroxyazetidine-1-carboxylate], the EC50 is no more than 0.05 µM.
In turn, `Cn1ccc2nc([C@H]3CC[C@H](CN(c4cccc(-c5cnc(C6CC6)s5)c4)C(=O)[C@H]4CC[C@H](OC(=O)N5CC(O)C5)CC4)CC3)ccc21` [Compound 5.13, trans-4-((3-(2-Cyclopropylthiazol-5-yl)phenyl)(((trans)-4-(1-methyl-1H-pyrrolo[3,2-b]pyridin-5-yl)cyclohexyl)methyl)carbamoyl) cyclohexyl 3-hydroxyazetidine-1-carboxylate] showed an EC50 of no more than 0.05 µM.
`COc1ccc([C@H]2CC[C@H](CN(c3cccc(-c4cnn(C(C)C)c4)c3)C(=O)[C@H]3CC[C@H](OC(=O)NC(C)C)CC3)CC2)cc1C` [Compound 5.10, trans-4-((3-(1-Isopropyl-1H-pyrazol-4-yl)phenyl)((trans-4-(4-methoxy-3-methylphenyl)cyclohexyl)methyl)carbamoyl)cyclohexyl isopropylcarbamate] showed a concentration for a half-maximal effect (EC50) of no more than 0.05 µM.
Next, `COc1ccc(C23CCC(CN(c4cc(-c5cnn(C(C)C)c5)ccn4)C(=O)[C@H]4CC[C@H](NC(=O)OC5CCOCC5)CC4)(CC2)CC3)cc1C` [Compound 7.03, (trans)-Tetrahydro-2H-pyran-4-yl (4-((4-(1-isopropyl-1H-pyrazol-4-yl)pyridin-2-yl)((4-(4-methoxy-3-methylphenyl)bicyclo[2.2.2]octan-1-yl)methyl)carbamoyl)cyclohexyl) carbamate]: no more than 0.05 µM; `COc1ccc([C@H]2CC[C@H](CN(c3cc(-c4cnn(C(C)C)c4)ccn3)C(=O)[C@H]3CC[C@H](OC(=O)N4CC(N(C)C)C4)CC3)CC2)cc1C` [Compound 2.13, trans-4-((4-(1-Isopropyl-1H-pyrazol-4-yl)pyridin-2-yl)(((trans)-4-(4-methoxy-3-methylphenyl)cyclohexyl)methyl)carbamoyl) cyclohexyl 3-(dimethylamino)azetidine-1-carboxylate]: no more than 0.05 µM; `COc1ccc([C@H]2CC[C@H](CN(c3cc(-c4ccc(N(C)C)nc4)ccn3)C(=O)[C@H]3CC[C@H](OC(=O)N4CC(O)C4)CC3)CC2)cc1C` [Compound 3, trans-4-((6-(Dimethylamino)-[3,4′-bipyridine]-2′-yl)((trans-4-(4-methoxy-3-methylphenyl)cyclohexyl)methyl)carbamoyl)cyclohexyl 3-hydroxyazetidine-1-carboxylate]: no more than 0.05 µM.
As for `COc1ccc(C23CCC(CN(c4cc(-c5cc(C6CC6)on5)ccn4)C(=O)[C@H]4CC[C@H](OC(=O)N5CC(O)C5)CC4)(CC2)CC3)cc1C` [Compound 4.26, 4-((4-(5-Cyclopropylisoxazol-3-yl)pyridin-2-yl)((4-(4-methoxy-3-methylphenyl)bicyclo[2.2.2]octan-1-yl)methyl)carbamoyl) cyclohexyl 3-hydroxyazetidine-trans-1-carboxylate], the concentration for a half-maximal effect (EC50) is no more than 0.05 µM.
Take `COc1ccc([C@H]2CC[C@H](CN(c3cc(-c4cnn(C(C)C)c4)ccn3)C(=O)[C@H]3CC[C@H](OC(=O)NCC(C)F)CC3)CC2)cc1C` (stereo partly drawn) [Compound 2.28, trans-4-((4-(1-Isopropyl-1H-pyrazol-4-yl)pyridin-2-yl)(((trans)-4-(4-methoxy-3-methylphenyl)cyclohexyl)methyl)carbamoyl) cyclohexyl(2-fluoropropyl)carbamate]: the EC50 is no more than 0.05 µM.
`COc1ccc(C23CCC(CN(c4cc(-c5cnn(C6(C)CCC6)c5)ncn4)C(=O)[C@H]4CC[C@H](OC(=O)N5CC(O)C5)CC4)(CC2)CC3)cc1C` [Compound 25.26, 4-(((4-(4-Methoxy-3-methylphenyl)bicyclo[2.2.2]octan-1-yl)methyl)(6-(1-(1-methylcyclobutyl)-1H-pyrazol-4-yl)pyrimidin-4-yl)carbamoyl)cyclohexyl trans-3-hydroxyazetidine-1-carboxylate] came in with a concentration for a half-maximal effect (EC50) of no more than 0.05 µM.
Compound `COc1ccc(C23CCC(CN(c4cc(-c5cnc(C(C)C)s5)ccn4)C(=O)[C@H]4CC[C@H](OC(=O)N5CC(S(C)(=O)=O)C5)CC4)(CC2)CC3)cc1C` [Compound 4.34, 4-((4-(2-Isopropylthiazol-5-yl)pyridin-2-yl)((4-(4-methoxy-3-methylphenyl)bicyclo[2.2.2]octan-1-yl)methyl)carbamoyl)(trans-cyclohexyl) 3-(methylsulfonyl)azetidine-1-carboxylate] returned an EC50 of no more than 0.05 µM.
`COc1ccc([C@H]2CC[C@H](CN(c3cc(-c4cnc(C5CC5)o4)ccn3)C(=O)[C@H]3CC[C@H](OC(=O)N4CC(O)C4)CC3)CC2)cc1C` [Compound 2.01, trans-4-((4-(2-Cyclopropyloxazol-5-yl)pyridin-2-yl)((trans-4-(4-methoxy-3-methylphenyl)cyclohexyl)methyl)carbamoyl)cyclohexyl 3-hydroxyazetidine-1-carboxylate] returned an EC50 of no more than 0.05 µM.
As for `COc1ncc([C@H]2CC[C@H](CN(c3cc(-c4coc(C5CC5)n4)ccn3)C(=O)[C@H]3CC[C@H](OC(=O)N4CCN(C)CC4)CC3)CC2)cc1Cl` [Compound 1.07, trans-4-((((trans)-4-(5-Chloro-6-methoxypyridin-3-yl)cyclohexyl)methyl)(4-(2-cyclopropyloxazol-4-yl)pyridin-2-yl)carbamoyl)cyclohexyl 4-methylpiperazine-1-carboxylate], the EC50 is no more than 0.05 µM.
Next, `CCOC(=O)N[C@H]1CC[C@H](C(=O)N(CC23CCC(c4ccc(OC)c(C)c4)(CC2)CC3)c2cc(-c3cnn(C(C)C)c3)ccn2)CC1` [Compound 8.01, (trans)-Ethyl (4-((4-(1-isopropyl-1H-pyrazol-4-yl)pyridin-2-yl)((4-(4-methoxy-3-methylphenyl)bicyclo[2.2.2]octan-1-yl)methyl)carbamoyl)cyclohexyl)car-bamate]: no more than 0.05 µM; `COc1ccc([C@H]2CC[C@H](CN(c3cccc(-c4cnn(C(C)C)c4)c3)C(=O)[C@H]3CC[C@H](NC(=O)OCCO)CC3)CC2)cc1C` [Compound 6.03, 2-Hydroxyethyl (trans-4-((3-(1-isopropyl-1H-pyrazol-4-yl)phenyl)((trans-4-(4-methoxy-3-methylphenyl)cyclohexyl)meth-yl)carbamoyl)cyclohexyl)carbamate]: no more than 0.05 µM.
`COc1ccc(C23CCC(CN(c4cncc(-c5cnn(C(C)C)c5)n4)C(=O)[C@H]4CC[C@H](OC(=O)N5CC(O)C5)CC4)(CC2)CC3)cc1C` [Compound 25.28, 4-((6-(1-Isopropyl-1H-pyrazol-4-yl)pyrazin-2-yl)((4-(4-methoxy-3-methylphenyl)bicyclo[2.2.2]octan-1-yl)methyl)carbamoyl)cyclohexyl trans-3-hydroxyazetidine-1-carboxylate] had a half-maximal effective concentration (EC50) of no more than 0.05 µM.
With `COc1ccc([C@H]2CC[C@H](CN(c3cc(-c4cnn(C(F)(F)F)c4)ccn3)C(=O)[C@H]3CC[C@H](OC(=O)N4CC(O)C4)CC3)CC2)cc1C` [Compound 2.57, trans-4-((((trans)-4-(4-Methoxy-3-methylphenyl)cyclohexyl)methyl) (4-(1-(trifluoromethyl)-1H-pyrazol-4-yl)pyridin-2-yl)carbamoyl)cyclohexyl 3-hydroxyazetidine-1-carboxylate], the EC50 is no more than 0.05 µM.
Next, `CCOC1CN(C(=O)O[C@H]2CC[C@H](C(=O)N(CC34CCC(c5ccc(OC)c(C)c5)(CC3)CC4)c3cc(-c4cnn(C(C)C)c4)ccn3)CC2)C1` [Compound 4.48, 4-((4-(1-Isopropyl-1H-pyrazol-4-yl)pyridin-2-yl) ((4-(4-methoxy-3-methylphenyl)bicyclo [2.2.2]octan-1-yl)methyl)carbamoyl)(trans-cyclohexyl) 3-ethoxyazetidine-1-carboxylate]: no more than 0.05 µM.
Next, `COc1ccc([C@H]2CC[C@H](CN(c3cc(-c4coc(C(C)C)n4)ccn3)C(=O)[C@H]3CC[C@H](OC(=O)N4CCN(C)CC4)CC3)CC2)cc1C` [Compound 2.25, trans-4-((4-(2-Isopropyloxazol-4-yl)pyridin-2-yl)(((trans)-4-(4-methoxy-3-methylphenyl)cyclohexyl)methyl)carbamoyl)cyclohexyl 4-methylpiperazine-1-carboxylate]: no more than 0.05 µM.

A word on the EC50: it is the concentration needed to bring the measured effect to its halfway point. A lower EC50 goes with a more potent agent.

The values above are taken from US20220056019A1, “FARNESOID X RECEPTOR AGONISTS AND USES THEREOF” (Metacrine, Inc., priority 2018, published 2022).
